The record followed here is patent publication US10689354B2, “Aminoazole derivative” (Teijin Pharma Limited, priority 2015, dated 2020).

Assay [1] has as its target T1, androgen receptor (AR-LBD) (Rattus norvegicus, UniProt P15207).
T1 construct: 5 μL of 2×AR-LBD/Fluoromone AL Red Complex contained in the kit; purchased Invitrogen
T1 sequence (P15207 651-882 limits assumed): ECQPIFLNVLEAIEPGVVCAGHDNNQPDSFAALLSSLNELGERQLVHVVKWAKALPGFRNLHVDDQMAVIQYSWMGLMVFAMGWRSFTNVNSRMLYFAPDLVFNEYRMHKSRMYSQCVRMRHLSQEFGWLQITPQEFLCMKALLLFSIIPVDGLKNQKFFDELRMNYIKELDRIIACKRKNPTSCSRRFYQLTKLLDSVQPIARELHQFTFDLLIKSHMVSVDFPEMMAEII
Put plainly: Evaluation of androgen receptor affinity (PolarScreen Androgen Receptor Competitor Assay Kit, Red; fluorescence polarization). The note with it: 22° C. for 5 hours, relative to binding rate of 1 μM DHT, read-out: AR affinity (pEC50) (converted). The essentials:
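Test compound and the 2× AR-LBD/Fluoromone AL Red complex were combined in duplicate wells. After reacting 5 h at 22° C, polarization was measured. pEC50 was derived by 4-parameter fitting, normalizing to binding obtained with 1 μM dihydrotestosterone.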
On the technique in general: Fluorescence polarisation rises when a labelled molecule tumbles more slowly, as on binding a larger partner.

The next assay addresses T2, human androgen receptor (Homo sapiens, UniProt P10275).
T2 construct: expressed in transfected cells; host or cells: HEK293
T2 sequence (P10275 1-920): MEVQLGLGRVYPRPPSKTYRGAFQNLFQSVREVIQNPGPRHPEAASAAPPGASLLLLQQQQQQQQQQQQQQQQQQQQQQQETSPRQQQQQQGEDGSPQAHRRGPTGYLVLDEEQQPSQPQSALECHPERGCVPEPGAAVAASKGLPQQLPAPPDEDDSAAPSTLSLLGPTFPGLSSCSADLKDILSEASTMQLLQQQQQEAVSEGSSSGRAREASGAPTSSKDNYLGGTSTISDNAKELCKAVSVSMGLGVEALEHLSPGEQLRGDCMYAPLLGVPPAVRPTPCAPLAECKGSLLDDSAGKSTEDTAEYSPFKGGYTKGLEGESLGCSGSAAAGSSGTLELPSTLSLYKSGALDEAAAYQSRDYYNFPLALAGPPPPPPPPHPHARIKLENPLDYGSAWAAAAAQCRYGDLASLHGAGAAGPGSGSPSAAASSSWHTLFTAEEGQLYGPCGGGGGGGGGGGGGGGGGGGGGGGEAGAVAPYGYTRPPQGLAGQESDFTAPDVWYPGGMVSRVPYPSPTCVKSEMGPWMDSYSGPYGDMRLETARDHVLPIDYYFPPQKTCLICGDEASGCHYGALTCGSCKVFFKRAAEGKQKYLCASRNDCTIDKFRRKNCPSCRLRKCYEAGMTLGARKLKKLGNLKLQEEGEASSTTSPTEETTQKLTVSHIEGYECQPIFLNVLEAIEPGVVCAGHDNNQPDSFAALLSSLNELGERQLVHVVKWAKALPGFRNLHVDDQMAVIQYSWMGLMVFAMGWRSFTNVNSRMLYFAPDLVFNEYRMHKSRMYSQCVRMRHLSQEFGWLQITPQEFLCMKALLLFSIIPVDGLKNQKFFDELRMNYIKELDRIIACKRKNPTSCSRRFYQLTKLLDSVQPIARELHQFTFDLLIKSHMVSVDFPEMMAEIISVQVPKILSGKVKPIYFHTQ
Description: Reporter assay of an androgen receptor responsive sequence (luciferase, transiently transfected HEK293 cells). Format: cell-based. The note with it: 24 hours incubation, relative to activity of 100 nM DHT, read-out: AR transcriptive activity (pEC50) (converted). An outline of the steps: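 Agonism scored as pEC50, fitted by 4-parameter curve against the response to 100 nM DHT, from dual-luciferase readout after 24 h compound treatment. Cells were HEK293 co-transfected (3 h) with human AR expression vector, androgen-responsive firefly reporter and Renilla control, in charcoal-stripped serum.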
For orientation: Reporter assays use an easily measured gene product as a stand-in for the process of interest.

Regarding `CS(=O)(=O)NC(=O)c1nc(N(Cc2ccccc2F)c2ccc(C#N)cc2)sc1Br` [Example 242, 5-bromo-2-[4-cyano-N-[(2-fluorophenyl)methyl]anilino]-N-methylsulfonyl-thiazole-4-carboxamide], the figures for the EC50 (in assay [1]; at human androgen receptor) were 63.1 nM and 100 nM, respectively.

Regarding `CS(=O)(=O)NC(=O)c1nc(N(Cc2cccc(F)c2)c2ccc(C#N)cc2)sc1Br` [Example 243, 5-bromo-2-[4-cyano-N-[(3-fluorophenyl)methyl]anilino]-N-methylsulfonyl-thiazole-4-carboxamide], the results for the EC50 (in assay [1]; at human androgen receptor) were 50.1 nM and 63.1 nM, respectively.

Regarding `CS(=O)(=O)NC(=O)c1nc(N(Cc2ccc(F)cc2)c2ccc(C#N)cc2)sc1Br` [Example 244, 5-bromo-2-[4-cyano-N-[(4-fluorophenyl)methyl]anilino]-N-methylsulfonyl-thiazole-4-carboxamide], the EC50 in assay [1] was 63.1 nM; on human androgen receptor, 39.8 nM.

For the compound `CS(=O)(=O)NC(=O)c1nc(N(Cc2cccc(Cl)c2)c2ccc(C#N)cc2)sc1Br` [Example 247, 5-bromo-2-[N-[(3-chlorophenyl)methyl]-4-cyano-anilino]-N-methylsulfonyl-thiazole-4-carboxamide], the EC50 (in assay [1]; at human androgen receptor) was 31.6 nM in each case.

On to `CS(=O)(=O)NC(=O)c1nc(N(Cc2ccc(Cl)cc2)c2ccc(C#N)cc2)sc1Br` [Example 248, 5-bromo-2-[N-[(4-chlorophenyl)methyl]-4-cyano-anilino]-N-methylsulfonyl-thiazole-4-carboxamide], for which the values for the EC50 (in assay [1]; on human androgen receptor) were 31.6 nM and 25.1 nM, respectively.

With `CS(=O)(=O)NC(=O)c1nc(N(Cc2ccc(C(F)(F)F)cc2)c2ccc(C#N)cc2)sc1Br` [Example 251, 5-bromo-2-[4-cyano-N-[[4-(trifluoromethyl)phenyl]methyl]anilino]-N-methylsulfonyl-thiazole-4-carboxamide], the EC50 is 39.8 nM in assay [1] and 25.1 nM at human androgen receptor.

As to `CS(=O)(=O)NC(=O)c1nc(N(Cc2cccc(OC(F)(F)F)c2)c2ccc(C#N)cc2)sc1Br` [Example 252, 5-bromo-2-[4-cyano-N-[[3-(trifluoromethoxy)phenyl]methyl]anilino]-N-methylsulfonyl-thiazole-4-carboxamide], the EC50 is 31.6 nM in assay [1] and 79.4 nM at human androgen receptor.

As for `CS(=O)(=O)NC(=O)c1nc(N(Cc2ccc(OC(F)(F)F)cc2)c2ccc(C#N)cc2)sc1Br` [Example 253, 5-bromo-2-[4-cyano-N-[[4-(trifluoromethoxy)phenyl]methyl]anilino]-N-methylsulfonyl-thiazole-4-carboxamide], the EC50 is 31.6 nM in assay [1] and 79.4 nM at human androgen receptor.

As to `CS(=O)(=O)NC(=O)c1nc(N(Cc2ccccc2OC(F)F)c2ccc(C#N)cc2)sc1Br` [Example 254, 5-bromo-2-[4-cyano-N-[[2-(difluoromethoxy)phenyl]methyl]anilino]-N-methylsulfonyl-thiazole-4-carboxamide], the figures for the EC50 (in assay [1]; on human androgen receptor) were 39.8 nM and 158 nM, respectively.

`CS(=O)(=O)NC(=O)c1nc(N(Cc2cccc(OC(F)F)c2)c2ccc(C#N)cc2)sc1Br` [Example 255, 5-bromo-2-[4-cyano-N-[[3-(difluoromethoxy)phenyl]methyl]anilino]-N-methylsulfonyl-thiazole-4-carboxamide]: the figures for the EC50 (in assay [1]; at human androgen receptor) were 50.1 nM and 79.4 nM, respectively.

For `CS(=O)(=O)NC(=O)c1nc(N(Cc2ccc(OC(F)F)cc2)c2ccc(C#N)cc2)sc1Br` [Example 256, 5-bromo-2-[4-cyano-N-[[4-(difluoromethoxy)phenyl]methyl]anilino]-N-methylsulfonyl-thiazole-4-carboxamide], the EC50 (in assay [1]; at human androgen receptor) was 50.1 nM throughout.

In the case of `CS(=O)(=O)NC(=O)c1nc(N(Cc2ccccc2F)c2ccc(C#N)cc2)sc1Cl` [Example 257, 5-chloro-2-[4-cyano-N-[(2-fluorophenyl)methyl]anilino]-N-methylsulfonyl-thiazole-4-carboxamide], the values for the EC50 (in assay [1]; at human androgen receptor) were 100 nM and 79.4 nM, respectively.

As to `CS(=O)(=O)NC(=O)c1nc(N(Cc2cccc(F)c2)c2ccc(C#N)cc2)sc1Cl` [Example 258, 5-chloro-2-[4-cyano-N-[(3-fluorophenyl)methyl]anilino]-N-methylsulfonyl-thiazole-4-carboxamide], the EC50 in assay [1] is 63.1 nM; at human androgen receptor it was 100 nM.

As to `CS(=O)(=O)NC(=O)c1nc(N(Cc2ccc(F)cc2)c2ccc(C#N)cc2)sc1Cl` [Example 262, 5-chloro-2-[4-cyano-N-[(4-fluorophenyl)methyl]anilino]-N-methylsulfonyl-thiazole-4-carboxamide], the EC50 was 50.1 nM in assay [1] and 39.8 nM at human androgen receptor.

For the compound `CS(=O)(=O)NC(=O)c1nc(N(Cc2ccccc2Cl)c2ccc(C#N)cc2)sc1Cl` [Example 263, 5-chloro-2-[N-[(2-chlorophenyl)methyl]-4-cyano-anilino]-N-methylsulfonyl-thiazole-4-carboxamide], the EC50 in assay [1] is 63.1 nM; at human androgen receptor, 316 nM.

In the case of `COc1cccc(CN(c2ccc(C#N)cc2)c2nc(C(=O)NS(C)(=O)=O)c(Br)s2)c1` [Example 265, 5-bromo-2-[4-cyano-N-[(3-methoxyphenyl)methyl]anilino]-N-methylsulfonyl-thiazole-4-carboxamide], the EC50 in assay [1] was 50.1 nM; at human androgen receptor it was 158 nM.

As to `CS(=O)(=O)NC(=O)c1nc(N(Cc2cccc(Cl)c2)c2ccc(C#N)cc2)sc1Cl` [Example 268, 5-chloro-2-[N-[(3-chlorophenyl)methyl]-4-cyano-anilino]-N-methylsulfonyl-thiazole-4-carboxamide], the EC50 in assay [1] was 50.1 nM; at human androgen receptor, 63.1 nM.

For `CS(=O)(=O)NC(=O)c1nc(N(Cc2ccc(Cl)cc2)c2ccc(C#N)cc2)sc1Cl` [Example 269, 5-chloro-2-[N-[(4-chlorophenyl)methyl]-4-cyano-anilino]-N-methylsulfonyl-thiazole-4-carboxamide], the EC50 in assay [1] was 25.1 nM; on human androgen receptor, 20 nM.

For `COc1ccccc1CN(c1ccc(C#N)cc1)c1nc(C(=O)NS(C)(=O)=O)c(Cl)s1` [Example 270, 5-chloro-2-[4-cyano-N-[(2-methoxyphenyl)methyl]anilino]-N-methylsulfonyl-thiazole-4-carboxamide], the figures for the EC50 (in assay [1]; at human androgen receptor) were 79.4 nM and 251 nM, respectively.

With `COc1ccc(CN(c2ccc(C#N)cc2)c2nc(C(=O)NS(C)(=O)=O)c(Cl)s2)cc1` [Example 271, 5-chloro-2-[4-cyano-N-[(4-methoxyphenyl)methyl]anilino]-N-methylsulfonyl-thiazole-4-carboxamide], the figures for the EC50 (in assay [1]; at human androgen receptor) were 79.4 nM and 50.1 nM, respectively.

For the compound `CS(=O)(=O)NC(=O)c1nc(N(Cc2ccc(C(F)(F)F)cc2)c2ccc(C#N)cc2)sc1Cl` [Example 272, 5-chloro-2-[4-cyano-N-[[4-(trifluoromethyl)phenyl]methyl]anilino]-N-methylsulfonyl-thiazole-4-carboxamide], the EC50 in assay [1] was 31.6 nM; at human androgen receptor it was 25.1 nM.

`CS(=O)(=O)NC(=O)c1nc(N(Cc2cccc(OC(F)(F)F)c2)c2ccc(C#N)cc2)sc1Cl` [Example 273, 5-chloro-2-[4-cyano-N-[[3-(trifluoromethoxy)phenyl]methyl]anilino]-N-methylsulfonyl-thiazole-4-carboxamide]: the EC50 in assay [1] is 31.6 nM; on human androgen receptor, 63.1 nM.
